This is an account of results in patent US8921376B2, “Pyrrolopyridines useful as inhibitors of protein kinase” (Vertex Pharmaceuticals Incorporated, priority 2005, dated 2014).

pKi: −log10 of the molar value.

Holding throughout (format): biochemical
The target of assay [1] is T1, JAK3 (Homo sapiens, UniProt P52333).
T1 sequence (P52333 1-1124): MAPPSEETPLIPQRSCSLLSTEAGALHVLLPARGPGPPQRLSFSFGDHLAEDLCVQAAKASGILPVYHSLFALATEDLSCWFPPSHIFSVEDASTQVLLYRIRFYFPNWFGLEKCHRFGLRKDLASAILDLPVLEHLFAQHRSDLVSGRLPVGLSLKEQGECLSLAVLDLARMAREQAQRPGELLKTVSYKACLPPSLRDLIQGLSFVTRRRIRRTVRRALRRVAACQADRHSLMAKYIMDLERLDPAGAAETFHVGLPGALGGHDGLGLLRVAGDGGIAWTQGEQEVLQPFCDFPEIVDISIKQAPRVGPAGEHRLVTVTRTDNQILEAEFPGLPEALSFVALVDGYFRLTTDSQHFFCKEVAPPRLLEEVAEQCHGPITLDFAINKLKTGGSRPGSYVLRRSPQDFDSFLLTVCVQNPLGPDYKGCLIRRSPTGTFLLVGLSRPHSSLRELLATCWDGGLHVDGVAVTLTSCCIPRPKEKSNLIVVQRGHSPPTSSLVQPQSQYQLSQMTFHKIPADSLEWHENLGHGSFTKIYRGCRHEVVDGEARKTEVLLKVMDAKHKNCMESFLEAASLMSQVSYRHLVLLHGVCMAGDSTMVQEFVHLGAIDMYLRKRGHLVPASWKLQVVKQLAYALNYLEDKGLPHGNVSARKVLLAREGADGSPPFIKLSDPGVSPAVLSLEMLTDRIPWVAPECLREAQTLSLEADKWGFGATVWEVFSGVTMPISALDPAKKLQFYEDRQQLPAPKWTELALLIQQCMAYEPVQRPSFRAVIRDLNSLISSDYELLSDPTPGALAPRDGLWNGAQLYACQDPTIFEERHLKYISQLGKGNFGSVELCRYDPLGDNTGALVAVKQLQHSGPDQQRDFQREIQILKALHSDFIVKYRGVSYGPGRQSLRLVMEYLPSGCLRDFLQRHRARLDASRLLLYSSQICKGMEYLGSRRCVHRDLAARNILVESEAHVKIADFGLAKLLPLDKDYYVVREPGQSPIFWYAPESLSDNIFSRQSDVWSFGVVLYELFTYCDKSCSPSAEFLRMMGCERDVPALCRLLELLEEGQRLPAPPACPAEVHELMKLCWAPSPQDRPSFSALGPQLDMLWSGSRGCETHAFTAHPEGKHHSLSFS
Briefly: JAK3 inhibition assay (33P incorporation into poly(Glu)4Tyr). The gist of the method: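 Human JAK3 at 1 nM phosphorylated 1 μM poly(Glu)4Tyr using 5 μM [33P]ATP in HEPES pH 7.4 buffer with MgCl2, DTT and BSA. Reactions ran 20 min at 25° C. and were stopped with TCA. 33P incorporation was measured by scintillation after glass-fiber filter capture.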

The target of assay [2] is JAK2 (Homo sapiens, UniProt O60674). Briefly: JAK2 inhibition assay (as Example 3 with JAK-2 enzyme). The gist of the method:
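Radiometric JAK2 kinase assay: poly(Glu)4Tyr substrate at final 15 μM, ATP at final 12 μM with [33P]; buffer 100 mM HEPES pH 7.4, 1 mM DTT, 10 mM MgCl2, 25 mM NaCl, 0.01% BSA. 20 min at 25 °C, TCA-stopped, 33P incorporation counted after filter capture.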

Assay [3] deals with ROCK I (Homo sapiens, UniProt Q13464). Briefly: ROCK-I inhibition assay (radioactive enzyme assay, MBP substrate). The gist of the method:
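Human ROCK at 5 nM phosphorylated 27 μM myelin basic protein with 13 μM [γ-33P]ATP (final) in HEPES pH 7.5, MgCl2, NaCl, DTT and 1.5% DMSO. Reactions ran 2 h at room temperature before TCA quench and filter-plate scintillation counting. After background subtraction, data were fit to give Ki(app).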

[4] abbreviates: enzyme inhibition, Ki(app), Table 5.
Setting [5] is: Table 6, enzyme inhibition data (Ki).

Sequence of ROCK I (Q13464 whole entry): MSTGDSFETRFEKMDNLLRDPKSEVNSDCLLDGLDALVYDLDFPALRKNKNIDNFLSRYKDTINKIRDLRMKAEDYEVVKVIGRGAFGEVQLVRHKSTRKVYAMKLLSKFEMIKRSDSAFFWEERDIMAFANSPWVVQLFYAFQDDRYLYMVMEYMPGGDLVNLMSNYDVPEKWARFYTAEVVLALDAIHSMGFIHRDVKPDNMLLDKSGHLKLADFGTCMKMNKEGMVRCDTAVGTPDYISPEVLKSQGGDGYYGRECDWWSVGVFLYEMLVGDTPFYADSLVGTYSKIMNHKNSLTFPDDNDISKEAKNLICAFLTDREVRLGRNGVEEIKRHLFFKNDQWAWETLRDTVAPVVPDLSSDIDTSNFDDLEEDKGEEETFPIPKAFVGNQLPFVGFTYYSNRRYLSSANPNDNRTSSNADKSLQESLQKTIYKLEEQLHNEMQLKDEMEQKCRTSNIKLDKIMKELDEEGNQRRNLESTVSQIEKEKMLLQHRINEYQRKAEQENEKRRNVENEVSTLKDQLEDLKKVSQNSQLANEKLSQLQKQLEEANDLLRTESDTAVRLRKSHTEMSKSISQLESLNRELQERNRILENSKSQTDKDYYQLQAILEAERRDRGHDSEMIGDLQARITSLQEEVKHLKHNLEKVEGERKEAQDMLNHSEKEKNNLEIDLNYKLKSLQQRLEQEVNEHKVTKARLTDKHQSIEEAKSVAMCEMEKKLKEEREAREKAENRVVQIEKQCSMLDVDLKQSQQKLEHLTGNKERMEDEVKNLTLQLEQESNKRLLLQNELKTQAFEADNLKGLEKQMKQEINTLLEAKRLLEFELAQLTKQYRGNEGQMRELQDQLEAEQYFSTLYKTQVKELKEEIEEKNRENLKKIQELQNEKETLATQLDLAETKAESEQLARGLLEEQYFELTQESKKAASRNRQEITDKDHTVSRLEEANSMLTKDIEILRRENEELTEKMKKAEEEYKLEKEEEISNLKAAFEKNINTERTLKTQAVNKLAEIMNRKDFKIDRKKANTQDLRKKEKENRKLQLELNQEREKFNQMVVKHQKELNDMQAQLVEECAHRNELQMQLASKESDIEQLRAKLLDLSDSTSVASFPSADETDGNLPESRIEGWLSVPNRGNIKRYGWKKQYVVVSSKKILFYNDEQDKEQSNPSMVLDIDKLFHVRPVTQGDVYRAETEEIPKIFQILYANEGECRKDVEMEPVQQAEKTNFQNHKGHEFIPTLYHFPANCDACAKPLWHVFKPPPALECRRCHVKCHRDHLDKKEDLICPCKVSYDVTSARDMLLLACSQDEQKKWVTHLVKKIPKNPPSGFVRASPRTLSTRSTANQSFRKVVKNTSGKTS
Sequence of JAK2 (O60674 whole entry): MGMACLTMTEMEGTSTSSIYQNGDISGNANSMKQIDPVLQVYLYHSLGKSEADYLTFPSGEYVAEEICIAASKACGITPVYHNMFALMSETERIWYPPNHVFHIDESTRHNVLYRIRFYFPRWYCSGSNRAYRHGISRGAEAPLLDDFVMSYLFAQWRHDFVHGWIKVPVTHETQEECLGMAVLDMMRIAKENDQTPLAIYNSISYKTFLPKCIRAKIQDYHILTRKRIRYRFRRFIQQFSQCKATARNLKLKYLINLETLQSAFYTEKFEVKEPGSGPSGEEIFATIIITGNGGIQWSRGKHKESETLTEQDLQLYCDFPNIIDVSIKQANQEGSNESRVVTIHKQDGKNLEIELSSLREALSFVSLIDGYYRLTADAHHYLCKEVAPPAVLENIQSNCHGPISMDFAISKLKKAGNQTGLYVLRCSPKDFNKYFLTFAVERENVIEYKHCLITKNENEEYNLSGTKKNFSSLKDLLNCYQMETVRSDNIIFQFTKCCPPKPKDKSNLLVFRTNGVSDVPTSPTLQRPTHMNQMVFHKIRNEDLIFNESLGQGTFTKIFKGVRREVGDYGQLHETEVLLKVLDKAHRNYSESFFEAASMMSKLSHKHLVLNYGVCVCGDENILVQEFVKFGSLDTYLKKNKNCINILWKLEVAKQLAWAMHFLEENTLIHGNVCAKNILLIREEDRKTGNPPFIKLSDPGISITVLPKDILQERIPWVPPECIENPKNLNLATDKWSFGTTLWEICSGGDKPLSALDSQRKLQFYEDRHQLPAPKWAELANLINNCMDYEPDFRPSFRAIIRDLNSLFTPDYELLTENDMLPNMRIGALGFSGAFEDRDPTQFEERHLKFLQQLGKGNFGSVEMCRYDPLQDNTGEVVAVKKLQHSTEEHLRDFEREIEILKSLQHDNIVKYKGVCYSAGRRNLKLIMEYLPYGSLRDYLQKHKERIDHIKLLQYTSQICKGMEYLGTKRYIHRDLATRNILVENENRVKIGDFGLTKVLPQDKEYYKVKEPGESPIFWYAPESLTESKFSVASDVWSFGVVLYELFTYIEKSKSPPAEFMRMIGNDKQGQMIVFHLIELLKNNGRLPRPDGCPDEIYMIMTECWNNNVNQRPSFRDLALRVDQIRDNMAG

With `Clc1ccccc1CCNc1cccc(-c2c(Cl)cnc3[nH]ccc23)n1` [compound 75, N-(2-Chlorophenethyl)-6-(5-chloro-1H-pyrrolo[2,3-b]pyridin-4-yl)pyridin-1-amine], the pKi (commonly the Ki on a negative log10 scale, so that one unit is a factor of ten) in assay [1] (enzyme inhibition, Table 5) is 5.30 to 6.30; in assay [2] (enzyme inhibition, Table 5), 5.30 to 6.30; in assay [3] (setting [4]), 5.30 to 6.30.

`CC(C)(C)OCc1ccccc1-c1ccnc2[nH]ccc12` [compound 232]: the pKi was below 5.30 in assay [1] (setting [5]), below 5.30 in assay [2] (setting [5]) and below 5.40 in assay [3] (setting [5]).

`O=C(c1cc(-c2ccnc3[nH]ccc23)c[nH]1)N1CCCC(O)C1` (stereo not drawn) [compound 372]: the pKi in assay [1] (setting [5]), in assay [2] (setting [5]) and in assay [3] (setting [5]) was 5.30 to 6.30 in each case.

For the compound `Clc1ccccc1CNc1cccc(-c2ccnc3[nH]ccc23)n1` [compound 33, N-(2-Chlorobenzyl)-6-(1H-pyrrolo[2,3-b]pyridin-4-yl)pyridin-2-amine], the pKi in assay [1] (enzyme inhibition, Table 5) is 5.30 to 6.30; in assay [2] (enzyme inhibition, Table 5), 5.30 to 6.30; in assay [3] (setting [4]), 5.30 to 6.30.

As for `C[C@H](Nc1nc(-c2ccnc3[nH]ccc23)nc2ccccc12)C(=O)NCC(F)(F)F` [compound 134], the pKi in assay [1] (enzyme inhibition, Table 5) was 5.30 to 6.30; in assay [2] (enzyme inhibition, Table 5), below 5.30; in assay [3] (setting [4]), 5.30 to 6.30.

For `O=C(O)c1ccccc1-c1ccnc2[nH]ccc12` [compound 238], the pKi in assay [1] (setting [5]) was below 5.30; in assay [2] (setting [5]), below 5.30; in assay [3] (setting [5]) it was below 5.40.

Turning to `Cc1noc(C)c1-c1c(Cl)cnc2[nH]ccc12` [compound 146], the negative logarithm of the Ki (pKi) is below 5.30 in assay [1] (setting [5]), below 5.30 in assay [2] (setting [5]) and below 5.40 in assay [3] (setting [5]).

With `Nc1ccccc1-c1c(Cl)cnc2[nH]ccc12` [compound 129], the pKi in assay [1] (enzyme inhibition, Table 5) was below 5.30; in assay [2] (enzyme inhibition, Table 5), below 5.30; in assay [3] (setting [4]) it was 5.30 to 6.30.

Take `Cc1cc(F)ccc1-c1ccnc2[nH]ccc12` [compound 243]: the pKi in assay [1] (setting [5]) is 5.30 to 6.30; in assay [2] (setting [5]), below 5.30; in assay [3] (setting [5]), 5.30 to 6.30.

Turning to `C[C@@H](Nc1ccnc(-c2ccnc3[nH]ccc23)n1)C(=O)NCC(F)(F)F` [compound 202], the pKi was above 6.30 in assay [1] (setting [5]), 5.30 to 6.30 in assay [2] (setting [5]) and below 5.40 in assay [3] (setting [5]).

With `CN(C)C1CCN(C(=O)c2cc(-c3ccnc4[nH]ccc34)c[nH]2)C1` (stereo not drawn) [compound 371], the pKi in assay [1] (setting [5]), in assay [2] (setting [5]) and in assay [3] (setting [5]) was 5.30 to 6.30 throughout.

For the compound `O=C(c1cc(-c2c(Cl)cnc3[nH]ccc23)c[nH]1)N1CCC(O)C1` (stereo not drawn) [compound 350], the pKi is above 6.30 in assay [1] (setting [5]), above 6.30 in assay [2] (setting [5]) and below 5.40 in assay [3] (setting [5]).

With `Clc1ccccc1CCNc1cccc(-c2ccnc3[nH]ccc23)n1` [compound 34, N-(2-Chlorophenethyl)-6-(1H-pyrrolo[2,3-b]pyridin-4-yl)pyridin-2-amine], the negative-log Ki (pKi) in assay [1] (enzyme inhibition, Table 5) is 5.30 to 6.30; in assay [2] (enzyme inhibition, Table 5), 5.30 to 6.30; in assay [3] (setting [4]) it was 5.30 to 6.30.

For `CC(C)(C#N)c1cccc(-c2ccnc3[nH]ccc23)n1` [compound 71, 2-(6-(1H-pyrrolo[2,3-b]pyridin-4-yl)pyridin-2-yl)-2-methylpropanetrile], the pKi in assay [1] (enzyme inhibition, Table 5) is above 6.30; in assay [2] (enzyme inhibition, Table 5), above 6.30; in assay [3] (setting [4]) it was above 6.30.

`C[C@@H]1CCC[C@H](C)N1C(=O)c1csc(-c2ccnc3[nH]ccc23)n1` [compound 421]: the pKi in assay [1] (setting [5]), in assay [2] (setting [5]) and in assay [3] (setting [5]) was above 6.30 each time.

For `Clc1cnc2[nH]ccc2c1C1=CCCCC1` [compound 29, 5-Chloro-4-cyclohexenyl-1H-pyrrolo[2,3b]pyridine], the pKi in assay [1] (enzyme inhibition, Table 5) was above 6.30; in assay [2] (enzyme inhibition, Table 5) it was above 6.30; in assay [3] (setting [4]), 5.30 to 6.30.

On to `C#CCN(C)C(=O)c1cc(-c2c(Cl)cnc3[nH]ccc23)c[nH]1` [compound 338], for which the pKi in assay [1] (setting [5]) was above 6.30; in assay [2] (setting [5]), above 6.30; in assay [3] (setting [5]) it was 5.30 to 6.30.

In the case of `CC(=O)Nc1ccc(-c2ccnc3[nH]ccc23)cc1` [compound 43, N-[4-(1H-Pyrrolo[2,3-b]pyridin-4-yl)-phenyl]-acetamide], the pKi is above 6.30 in assay [1] (enzyme inhibition, Table 5); above 6.30 in assay [2] (enzyme inhibition, Table 5); above 6.30 in assay [3] (setting [4]).
